Marks after values point to notes of the source that are not given here.
Tested on: female rats
Experiment: 28-day repeated dose oral toxicity study (OECD 407) with GC-MS/LC-MS plasma metabolite profiling, female rats

For CN1CCCC1=O [1-Methyl-2-pyrrolidon], the “3-O-Methylsphingosine (d18:1), ratio versus control” value (day 7) was 2.14*, the “5-O-Methylsphingosine (d18:1), ratio versus control” value (day 7) was 2.42* and the “14-Methylhexadecanoic acid, ratio versus control” value (day 7) was 1.15. The “Behenic acid (C22:0), ratio versus control” value (day 7) was 1.9*, the “Cholesterol, ratio versus control” value (day 7) was 1.73* and the “Coenzyme Q9, ratio versus control” value (day 7) was 2.46*. For the same molecule, the “DAG (C18:1,C18:2), ratio versus control” value (day 7) was 2.43*, the “Eicosanoic acid (C20:0), ratio versus control” value (day 7) was 1.77* and the “Glucose, ratio versus control” value (day 7) was 1.05*. For the same molecule, the “Glycerol phosphate, lipid fraction, ratio versus control” value (day 7) was 1.86*, the “Glycerol, lipid fraction, ratio versus control” value (day 7) was 2.24* and the “Glycerol-3-phosphate, polar fraction, ratio versus control” value (day 7) was 1.9*. For the same molecule, the “Heptadecanoic acid (C17:0), ratio versus control” value (day 7) was 1.46*, the “Linoleic acid (C18:cis[9,12]2), ratio versus control” value (shortened to “Linoleic acid … ratio versus control”) (day 7) was 2.52* and the “Nervonic acid (C24:cis[15]1), ratio versus control” value (day 7) was 1.75*. The “Palmitic acid (C16:0), ratio versus control” value (day 7) was 1.91*, the “Phosphatidylcholine (C16:0,C20:5), ratio versus control” value (day 7) was 1.32* and the “TAG (C16:0,C18:1,C18:3), ratio versus control” value (day 7) was 3.94*. The “TAG (C16:0,C18:2), ratio versus control” value (day 7) was 2.46*, the “TAG (C18:1,C18:2), ratio versus control” value (day 7) was 3.73* and the “TAG (C18:2,C18:2), ratio versus control” value (day 7) was 3.44*. The “TAG (C18:2,C18:3), ratio versus control” value (day 7) was 4.16*, the “TAG No 01, ratio versus control” value (day 7) was 3.21* and the “TAG No 05, ratio versus control” value (day 7) was 3.11*. For the same molecule, the “TAG No 07, ratio versus control” value (day 7) was 3.69*, the “dihomo-gamma-Linolenic acid (C20:cis[8,11,14]3), ratio versus control” value (day 7) was 2.37* and the “erythro-Sphingosine, ratio versus control” value (day 7) was 2.19*. The “3-O-Methylsphingosine (d18:1), ratio versus control” value (day 14) was 2.3*, the “5-O-Methylsphingosine (d18:1), ratio versus control” value (day 14) was 2.31* and the “14-Methylhexadecanoic acid, ratio versus control” value (day 14) was 0.93. The “Behenic acid (C22:0), ratio versus control” value (day 14) was 2.04*, the “Cholesterol, ratio versus control” value (day 14) was 2.16* and the “Coenzyme Q9, ratio versus control” value (day 14) was 2.57*. For the same molecule, the “DAG (C18:1,C18:2), ratio versus control” value (day 14) was 2.31*, the “Eicosanoic acid (C20:0), ratio versus control” value (day 14) was 1.8* and the “Glucose, ratio versus control” value (day 14) was 0.99. For the same molecule, the “Glycerol phosphate, lipid fraction, ratio versus control” value (day 14) was 1.72*, the “Glycerol, lipid fraction, ratio versus control” value (day 14) was 2.33* and the “Glycerol-3-phosphate, polar fraction, ratio versus control” value (day 14) was 1.11*. The “Heptadecanoic acid (C17:0), ratio versus control” value (day 14) was 1.39*, the “Linoleic acid … ratio versus control” value (day 14) was 2.4* and the “Nervonic acid (C24:cis[15]1), ratio versus control” value (day 14) was 1.64*. For the same molecule, the “Palmitic acid (C16:0), ratio versus control” value (day 14) was 1.95*, the “Phosphatidylcholine (C16:0,C20:5), ratio versus control” value (day 14) was 1.45* and the “TAG (C16:0,C18:1,C18:3), ratio versus control” value (day 14) was 4.14*. The “TAG (C16:0,C18:2), ratio versus control” value (day 14) was 3.6*, the “TAG (C18:1,C18:2), ratio versus control” value (day 14) was 3.82* and the “TAG (C18:2,C18:2), ratio versus control” value (day 14) was 3.56*. The “TAG (C18:2,C18:3), ratio versus control” value (day 14) was 3.61*, the “TAG No 01, ratio versus control” value (day 14) was 4.15* and the “TAG No 05, ratio versus control” value (day 14) was 5.32*. The “TAG No 07, ratio versus control” value (day 14) was 3.84*, the “dihomo-gamma-Linolenic acid (C20:cis[8,11,14]3), ratio versus control” value (day 14) was 2.16* and the “erythro-Sphingosine, ratio versus control” value (day 14) was 2.27*. The “3-O-Methylsphingosine (d18:1), ratio versus control” value (day 28) was 1.83*, the “5-O-Methylsphingosine (d18:1), ratio versus control” value (day 28) was 1.89* and the “14-Methylhexadecanoic acid, ratio versus control” value (day 28) was 1.35*. For the same molecule, the “Behenic acid (C22:0), ratio versus control” value (day 28) was 2.06*, the “Cholesterol, ratio versus control” value (day 28) was 2.38* and the “Coenzyme Q9, ratio versus control” value (day 28) was 3.27*. The “DAG (C18:1,C18:2), ratio versus control” value (day 28) was 6.81*, the “Eicosanoic acid (C20:0), ratio versus control” value (day 28) was 2.79* and the “Glucose, ratio versus control” value (day 28) was 0.76*. The “Glycerol phosphate, lipid fraction, ratio versus control” value (day 28) was 2.59*, the “Glycerol, lipid fraction, ratio versus control” value (day 28) was 5.75* and the “Glycerol-3-phosphate, polar fraction, ratio versus control” value (day 28) was 1.29. For the same molecule, the “Heptadecanoic acid (C17:0), ratio versus control” value (day 28) was 2.17*, the “Linoleic acid … ratio versus control” value (day 28) was 4.46* and the “Nervonic acid (C24:cis[15]1), ratio versus control” value (day 28) was 1.75*. For the same molecule, the “Palmitic acid (C16:0), ratio versus control” value (day 28) was 3.53*, the “Phosphatidylcholine (C16:0,C20:5), ratio versus control” value (day 28) was 1.35* and the “TAG (C16:0,C18:1,C18:3), ratio versus control” value (day 28) was 11.37*. For the same molecule, the “TAG (C16:0,C18:2), ratio versus control” value (day 28) was 3.51*, the “TAG (C18:1,C18:2), ratio versus control” value (day 28) was 7.38* and the “TAG (C18:2,C18:2), ratio versus control” value (day 28) was 7.33*. For the same molecule, the “TAG (C18:2,C18:3), ratio versus control” value (day 28) was 11.21*, the “TAG No 01, ratio versus control” value (day 28) was 11.51* and the “TAG No 05, ratio versus control” value (day 28) was 10.76*. The “TAG No 07, ratio versus control” value (day 28) was 14.21*, the “dihomo-gamma-Linolenic acid (C20:cis[8,11,14]3), ratio versus control” value (day 28) was 3.96* and the “erythro-Sphingosine, ratio versus control” value (day 28) was 1.9*.
